According to patent US20150368681A1, “Dehydroascorbic Acid Process” (priority 2014, published 2015):

Assay: Storage stability of DHAA in oxidized zucchini puree product, DHAA concentration by TCEP differential absorbance method
Assay type: physicochemical
Protocol: Four zucchini fruits about 6-8 inches long were purchased at a local grocery store. The shelf labeling indicated the fruits were a product of Mexico, as might be expected in Utah during the month of November when this experiment was conducted. Thus the fruit was not locally-grown and probably older (stored longer since picked) than known fresh-picked fruit. It is known that the AAO activity of zucchini fruit decreases during storage after being picked. The epicarp and outer portions of the mesocarp were peeled from the fruits, to the extent that approximately one-half of the weight of each fruit was included in the peelings. 300 grams of peelings were added to a blender with 100 grams purified water and pureed. 20 grams of the puree was removed and reserved for a “blank”. To the remaining puree (380 grams) was added 1.4 grams AA (as pure crystals approximately US mesh size 20-40) and the puree was mixed in the blender about 1 minute. The pH of the puree was measured and found to be 5.2, and a redox test indicated AA reducing activity in the puree. The puree was allowed to stand with periodic brief mixing for 35 minutes. […] A 20 gram portion was removed for a “test.” The blank and test solutions were centrifuged to remove the pulp so that pulp-free solutions could be spectrophotometrically analyzed. 25 uL of each of these solutions were diluted in 10 mL of 0.15 M phosphoric acid diluent, and the absorbance of each was determined using a UV spectrometer at 262 nm wavelength blanked against diluent. 2 mL of each dilution were combined with 2 mL of a TCEP reagent, incubated one hour, and then the absorbance at 262 nm of these solutions were determined as above (TCEP reagent reduces DHAA in the solution to AA; absorbance measurements at wavelengths where AA strongly absorbs, before and after treatment with TCEP, is a method known to practitioners in the art to quantify DHAA concentration by the differential absorption principle). The following absorption values were obtained (TCEP values are corrected for the X2 dilution):
One whole zucchini fruit weighing 235 grams was pureed in 120 mL water in a blender. The pH of the initial zucchini puree was 6.5. At time 0 minutes, 1.0 gram crystalline AA was added. After mixing 30 seconds, the pH was 5.0. At the times indicated in the table below, pH was recorded, iodine indicator redox result was recorded, and/or additional AA in the amounts indicated were added after testing the pH and redox status. The zucchini puree was continuously mixed in the blender during the entire time, and a cap in the top of the blender was left open to allow fresh air to be drawn into the vortex of the puree in the blender.
The product was split into three equal parts. Part 1 was kept in a closed container at room temperature. Part 2 was kept in a closed container at standard refrigerator temperature of 4 degrees C. Part 3 was kept in a closed container at common freezer temperature of minus 20 degrees C. Part 1 was tested immediately for DHAA concentration by the TCEP method previously discussed, and then after overnight storage (approx. 12 hours); Part 2 was tested after overnight storage (approx. 12 hours), and then after 13 days; Part 3 was tested after 13 days. Recovery column is the actual concentration divided by the maximum expected DHAA concentration of 2.4%, expressed as percent.

## O=C1O[C@H]([C@@H](O)CO)C(=O)C1=O [DHAA, dehydroascorbic acid]
Example 3 product, Part 1, tested immediately, storage 0 hours
  DHAA Concentration: 2.27%
Part 1, closed container, room temperature, 12 hours
  DHAA Concentration: 1.68%
Part 2, refrigerator 4 degrees C, 12 hours
  DHAA Concentration: 2.14%
Part 2, refrigerator 4 degrees C, 312 hours (13 d)
  DHAA Concentration: 1.27%
Part 3, freezer minus 20 degrees C, 312 hours (13 d)
  DHAA Concentration: 2.10%
Product stored frozen for at least 13 days
  Loss of DHAA on frozen storage: minimal loss
